# System: 156681-154-R-J1-PDC complex spheroid viability
# Assay: Anticancer human tumor 156681-154-R-J1-PDC patient-derived melanoma cell line growth inhibition [CLK]
# Conditions: for IC50: curve of first compound; for viability, T/C: stronger effect = lower value
# Source text: A high-throughput screen of multi-cell type tumor spheroids was designed to identify active combinations of […] and targeted small molecules. Complex spheroids include a stromal component modeled by human endothelial cells (HUVEC) and fibroblasts modeled by human mesenchymal stem cells (MSCs). The concentration ranges selected for each drug and investigational agent were based upon clinically achievable concentrations if the clinical Cmax of the agent was known.
# Compounds. The drugs and investigational agents: cirtuvivint (SM08502; NSC835563), CC-671 (NSC850746), vemurafenib (NSC761431), tapotoclax (NSC804041), sotorasib (NSC818433), adagrasib (NSC831453), MRTX-1133 (NSC836407), BAY2416964 (NSC825713), copanlisib (NSC816437), inavolisib (NSC800729), abemaciclib (NSC768073), osimertinib (NSC779217), entinostat (NSC756642), eltanexor (KPT-8602, NSC794443), venetoclax (NSC766270), ceralasertib (NSC777638), bortezomib (NSC756655), olaparib (NSC753686), talazoparib (NSC767125), alisertib (NSC759677), peposertib (NSC802822), gemcitabine (NSC613327), 5-fluorouracil (NSC19893), SN-38 (NSC673596), oxaliplatin (NSC266046), paclitaxel (NSC125973), and doxorubicin (NSC123127), were obtained from the National Cancer Institute (NCI) Developmental Therapeutics Program Chemical Repository. The FDA-approved anticancer drug set is available from the Developmental Therapeutics Program at https://dtp.cancer.gov/organization/dscb/obtaining/available plates.htm. […] The stock solutions were prepared in dimethyl sulfoxide (DMSO, Sigma-Aldrich, St. Louis, MO, cat. D2650), except for the platinum complexes which were prepared in saline (Quality Biological, Gaithersburg, MD, cat. 114-055-101), at 800-fold the tested concentration and stored at -70 degrees C prior to their use. All drugs and investigational agents were tested over a range starting from a high concentration at or near the clinical Cmax and decreasing in half-log increments. If the clinical Cmax for an agent had not been determined, the highest concentration tested was 10 microM.
# Cell Culture. All cells were maintained in an incubator at 37 degrees C and 5% CO2 with 95% humidity. The PDC lines were cultured according to standard operating procedures established by the NCI PDMR. Briefly, all PDCs were thawed and cultured in Matrigel-coated flasks prepared with a working solution of 1X Ham's F-12 nutrient mix, without supplementation (Invitrogen, Waltham, MA, cat. 11765054), 100 U/mL penicillin-streptomycin (Invitrogen, cat. 15140122), and 2.5% Matrigel (Corning Inc., Corning, NY, cat. 354248) for the first three passages. The 947758-054-R-J2-PDC line was cultured in 6B/Colon 1A media, which includes advanced DMEM/F-12 (Thermo Fisher Scientific, cat. 12634028), 10 mM HEPES (Thermo Fisher Scientific, cat. 15630080), 1X GlutaMAX supplement (Thermo Fisher Scientific, cat. 35050061), 0.1 mg/mL primocin (InvivoGen, cat. ant-pm-2), 10% defined fetal bovine serum, heat inactivated (HyClone Laboratories Inc., cat. SH30070.03HI), 1.25 mM N-Acetyl-L-cysteine (Sigma-Aldrich, cat. A9165), 10 mM nicotinamide (Sigma-Aldrich, cat. N0636), 1X B-27 supplement (Thermo Fisher Scientific, cat. 17504044), 1X N-2 supplement (Thermo Fisher Scientific, cat. 17502048), and 10 microM Y-27632 dihydrochloride (Tocris Bioscience, cat. 1254). The 876862-298-R-J1-PDC was cultured in 6E media, which includes all 6B/Colon 1A media components plus 50% L-WRN conditioned media (ATCC, cat. CRL-3276), 50 ng/mL recombinant human EGF recombinant protein (hEGF; Thermo Fisher Scientific, cat. PHG0311), 10 ng/mL recombinant human fibroblast growth factor 10 (hGFG-10; PeproTech, cat. 100-26), 1 ng/mL recombinant human fibroblast growth factor 2 (hFGF-2; PeproTech, cat. 100-18B), and 1 µM prostaglandin E2 (PGE2; Tocris, cat. 2296). The 227483-062-R1-J1-PDC line was cultured in Panc media, containing all 6E components except hFGF-2, with the addition of 500 nM SB-431542 (Selleckchem, cat. S1067) and 10 nM gastrin (Tocris, cat. 3006). […]
# 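Further: spheroids exposed to the agents for seven days.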
# 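Wherever viability, T/C is given: 100% = DMSO vehicle control viability.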
compound,measurement,setting,value
NC(=O)C(=Cn1cnc(-c2cc(C(F)(F)F)cc(C(F)(F)F)c2)n1)c1cncnc1 + CNC(=O)c1ccc(Nc2nc(OC3CCCC3)c3c(-c4ccc5nc(C)oc5c4)c[nH]c3n2)c(OC)c1,IC50,second compound 0.0316 µM,61.9 nM
same,IC50,second compound 0.1 µM,< 9.49 nM
same,IC50,second compound 0.316 µM,33.2 nM
same,IC50,second compound 1 µM,< 9.49 nM
same,IC50,second compound 3.16 µM,< 9.49 nM
same,IC50,second compound 10 µM,< 9.49 nM
same,"viability, T/C","second compound 0.0316 µM, first compound 0.00949 µM",64.7%
same,"viability, T/C","second compound 0.0316 µM, first compound 0.03 µM",81%
same,"viability, T/C","second compound 0.0316 µM, first compound 0.0949 µM",36.6%
same,"viability, T/C","second compound 0.0316 µM, first compound 0.3 µM",14%
same,"viability, T/C","second compound 0.0316 µM, first compound 0.949 µM",6.14%
same,"viability, T/C","second compound 0.0316 µM, first compound 3 µM",3.87%
same,"viability, T/C","second compound 0.1 µM, first compound 0.00949 µM",37.9%
same,"viability, T/C","second compound 0.1 µM, first compound 0.03 µM",52.5%
same,"viability, T/C","second compound 0.1 µM, first compound 0.0949 µM",33%
same,"viability, T/C","second compound 0.1 µM, first compound 0.3 µM",18.4%
same,"viability, T/C","second compound 0.1 µM, first compound 0.949 µM",6.15%
same,"viability, T/C","second compound 0.1 µM, first compound 3 µM",4.5%
same,"viability, T/C","second compound 0.316 µM, first compound 0.00949 µM",52.4%
same,"viability, T/C","second compound 0.316 µM, first compound 0.03 µM",53.7%
same,"viability, T/C","second compound 0.316 µM, first compound 0.0949 µM",23.7%
same,"viability, T/C","second compound 0.316 µM, first compound 0.3 µM",7.53%
same,"viability, T/C","second compound 0.316 µM, first compound 0.949 µM",3.12%
same,"viability, T/C","second compound 0.316 µM, first compound 3 µM",3.35%
same,"viability, T/C","second compound 1 µM, first compound 0.00949 µM",40.3%
same,"viability, T/C","second compound 1 µM, first compound 0.03 µM",45%
same,"viability, T/C","second compound 1 µM, first compound 0.0949 µM",7.8%
same,"viability, T/C","second compound 1 µM, first compound 0.3 µM",1.43%
same,"viability, T/C","second compound 1 µM, first compound 0.949 µM",1.06%
same,"viability, T/C","second compound 1 µM, first compound 3 µM",0.77%
same,"viability, T/C","second compound 3.16 µM, first compound 0.00949 µM",37.5%
same,"viability, T/C","second compound 3.16 µM, first compound 0.03 µM",22.1%
same,"viability, T/C","second compound 3.16 µM, first compound 0.0949 µM",4.21%
same,"viability, T/C","second compound 3.16 µM, first compound 0.3 µM",1.37%
same,"viability, T/C","second compound 3.16 µM, first compound 0.949 µM",1.03%
same,"viability, T/C","second compound 3.16 µM, first compound 3 µM",0.18%
same,"viability, T/C","second compound 10 µM, first compound 0.00949 µM",28.5%
same,"viability, T/C","second compound 10 µM, first compound 0.03 µM",24.2%
same,"viability, T/C","second compound 10 µM, first compound 0.0949 µM",3.92%
same,"viability, T/C","second compound 10 µM, first compound 0.3 µM",1%
same,"viability, T/C","second compound 10 µM, first compound 0.949 µM",1.5%
same,"viability, T/C","second compound 10 µM, first compound 3 µM",0.26%
CCN1CCN(Cc2ccc(Nc3ncc(F)c(-c4cc(F)c5nc(C)n(C(C)C)c5c4)n3)nc2)CC1 + CN1CCN(c2cc(C(=O)Nc3cc4cc(-c5cnn(C)c5)ccc4cn3)ccn2)CC1,IC50,second compound 0.0316 µM,665 nM
same,IC50,second compound 0.1 µM,807 nM
same,IC50,second compound 0.316 µM,< 3.16 nM
same,IC50,second compound 1 µM,< 3.16 nM
same,IC50,second compound 3.16 µM,< 3.16 nM
same,IC50,second compound 10 µM,< 3.16 nM
same,"viability, T/C","second compound 0.0316 µM, first compound 0.00316 µM",97%
same,"viability, T/C","second compound 0.0316 µM, first compound 0.01 µM",94.9%
same,"viability, T/C","second compound 0.0316 µM, first compound 0.0316 µM",87.5%
same,"viability, T/C","second compound 0.0316 µM, first compound 0.1 µM",77.6%
same,"viability, T/C","second compound 0.0316 µM, first compound 0.316 µM",71.8%
same,"viability, T/C","second compound 0.0316 µM, first compound 1 µM",39.1%
same,"viability, T/C","second compound 0.1 µM, first compound 0.00316 µM",96.2%
same,"viability, T/C","second compound 0.1 µM, first compound 0.01 µM",76.2%
same,"viability, T/C","second compound 0.1 µM, first compound 0.0316 µM",70.6%
same,"viability, T/C","second compound 0.1 µM, first compound 0.1 µM",89.9%
same,"viability, T/C","second compound 0.1 µM, first compound 0.316 µM",67.2%
same,"viability, T/C","second compound 0.1 µM, first compound 1 µM",46.1%
same,"viability, T/C","second compound 0.316 µM, first compound 0.00316 µM",21.6%
same,"viability, T/C","second compound 0.316 µM, first compound 0.01 µM",21.1%
same,"viability, T/C","second compound 0.316 µM, first compound 0.0316 µM",17.8%
same,"viability, T/C","second compound 0.316 µM, first compound 0.1 µM",23.1%
same,"viability, T/C","second compound 0.316 µM, first compound 0.316 µM",18.7%
same,"viability, T/C","second compound 0.316 µM, first compound 1 µM",9.12%
same,"viability, T/C","second compound 1 µM, first compound 0.00316 µM",0.15%
same,"viability, T/C","second compound 1 µM, first compound 0.01 µM",0.55%
same,"viability, T/C","second compound 1 µM, first compound 0.0316 µM",3.58%
same,"viability, T/C","second compound 1 µM, first compound 0.1 µM",0.43%
same,"viability, T/C","second compound 1 µM, first compound 0.316 µM",1.38%
same,"viability, T/C","second compound 1 µM, first compound 1 µM",0.47%
same,"viability, T/C","second compound 3.16 µM, first compound 0.00316 µM",0.8%
same,"viability, T/C","second compound 3.16 µM, first compound 0.01 µM",1.88%
same,"viability, T/C","second compound 3.16 µM, first compound 0.0316 µM",0.12%
same,"viability, T/C","second compound 3.16 µM, first compound 0.1 µM",1.66%
same,"viability, T/C","second compound 3.16 µM, first compound 0.316 µM",2.74%
same,"viability, T/C","second compound 3.16 µM, first compound 1 µM",1.56%
same,"viability, T/C","second compound 10 µM, first compound 0.00316 µM",0.1%
same,"viability, T/C","second compound 10 µM, first compound 0.01 µM",0.55%
same,"viability, T/C","second compound 10 µM, first compound 0.0316 µM",0.69%
same,"viability, T/C","second compound 10 µM, first compound 0.1 µM",0.18%
same,"viability, T/C","second compound 10 µM, first compound 0.316 µM",0.5%
same,"viability, T/C","second compound 10 µM, first compound 1 µM",3.25%
